# Experimental data from patent publication US10620222B2, “Electrified compositions for determining the risk of developing adolescent idiopathic scoliosis through the use of GI protein receptor” (CHU Sainte-Justine, priority 2008, dated 2020).
# “And” between values parts separate entries of the source, which are not always exact repeats. Equal entries are not always repeated.
# Tested on: receptors coupled to Gi proteins expressed on osteoblasts
# Test: Cellular Dielectric Spectroscopy (CDS, CELLKEY) response to Gi-coupled receptor ligands in osteoblasts from control and AIS subjects
# Format: cell-based, human
# Set-up: % of control / % of control signal, Group 1, min diff. / % of control signal, Group 2, min diff. / % of control signal, Group 3, min diff.: concentration or dose not given beside the values; dZiec value / Absolute dZiec, control value of max diff. (maximal control value): unit not given here
# Details: for % of control / dZiec value: maleate; for dZiec value: n1, n2 of Exper. 1-3
# From the text: Bone specimens were obtained intraoperatively from vertebras (varying from T3 to L4 according to the surgical procedure performed), while with trauma cases used as non-scoliotic controls bone specimens were obtained from other anatomical sites (tibia or femur, and in one case from an iliac crest biopsy). Osteoblasts and myoblasts isolated as previously described (Moreau A, Wang D S, Forget S et al. Melatonin Signaling Dysfunction in Adolescent Idiopathic Scoliosis. Spine 2004; 29:1772-81; Azeddine et al., 2007 Molecular determinants of melatonin signaling dysfunction in adolescent idiopathic scoliosis. Clin Orthop Relat Res. 2007, 462:45-52), were cultured at 37° C./5% CO2 in MEM supplemented with 10% fetal bovine serum (FBS) and 100 μg/mL streptomycin. Prior to the experiment, cells were seeded into the CELLKEY™ label-free cellular analysis system standard 96-well plates at a density of 5×10^4/well and grown for 24 h and incubated in standard conditions (37° C./5% CO2). In some plates, Pertussis toxin (100 ng/mL, Sigma, Oakville, ON, Canada) treatment was performed 16 h before the CDS assay. Following overnight incubation, plates were placed onto the CELLKEY™ label-free cellular analysis system and growth medium was exchanged to assay buffer (Hanks, Balanced Salt Solution containing 20 mM HEPES and 0.1% BSA) before starting the experiment. Cells were then allowed to equilibrate at room temperature for 30 min. Pre-addition measurements were made for 5 min to obtain a baseline reading. […] The quick update rate (2 s.) of the CELLKEY™ label-free cellular analysis system allows detection of these immediate changes in impedance. Impedance measurements were collected for 10 min to 15 min at 28° C. after ligand addition to monitor cellular responses to ligand interaction and to generate CELLKEY™ label-free cellular analysis system response profiles that are characteristic of the signaling mechanisms used.
# The response induced by the various ligands to their receptors was measured by cellular dielectric spectroscopy (CDS) using the CELLKEY™ label-free cellular analysis technology. (MDS Sciex, San Francisco, Calif., USA). The CELLKEY™ label-free cellular analysis system integrates a proprietary impedance measurement system, custom 96-well microliter plate, onboard 96-well fluidics, and environment control and custom acquisition and analysis software in a full solution package (MDS Sciex) that is compatible with commercially available robotic platforms. Small voltage at 24 frequencies, from 1 KHz to 10 MHz, is applied to a monolayer of cells settled in a 96-well microplate containing electrodes at the bottom, and the resultant current is measured at an update rate of 2 s. […] Onboard fluid additions and exchanges are handled by 96-well head fluid delivery device with a range of 5-500 μL. In addition to the cell plate location, the CELLKEY™ label-free cellular analysis system includes two additional stations for 96- or 384-well compound plates. All aspects of assay set up, execution, and data acquisition and analysis are controlled by CELLKEY™ label-free cellular analysis software.
# The minimal (min) and maximal (max) values represent the mean of three independent measurements performed in duplicate (six values in total) for a given patient/control subject. […] Duplicates (n1 and n2) of three independent experiments are presented.
# [1] = osteoblasts of control subjects, 300 μM ligand, from FIGS. 11A-11F
compound,measurement,setting,value
"O=C(O)/C=C\C(=O)O.c1ccc(N2CCN(CCCOc3ccc4c(c3)OCO4)CC2)cc1 [BP554, 1-[3-(3,4-Methylenedioxyphenoxy)propyl]-4-phenyl-piperazine maleate]",% of control,osteoblasts of AIS#1020 (Group 3) relative to CTR#60,44.5% and 42.3% and 48.5% and 45.1% and 43.7% and 46.6%
same,dZiec value,"osteoblasts of AIS#1020 (Group 3), 300 μM ligand",62.57 and 64.57 and 78.63 and 76.63 and 66.6 and 74.6
same,% of control,osteoblasts of AIS#1198 (Group 3 in Table II) relative to CTR#69,41.1% and 45.0% and 40.6% and 43.5%
same,dZiec value,"osteoblasts of AIS#1198 (Group 3 in Table II), 300 μM ligand",59.83 and 64.83 and 74.63 and 70.63 and 63.73 and 71.73
same,% of control,osteoblasts of AIS#1385 (Group 2) relative to CTR#69,50.4% and 43.4% and 51.9% and 49.0% and 46.4% and 44.8%
same,dZiec value,"osteoblasts of AIS#1385 (Group 2), 300 μM ligand",73.41 and 68.41 and 86.15 and 85.15 and 72.78 and 73.78
same,% of control,osteoblasts of AIS#1468 (Group 3) relative to CTR#61,63.8% and 66.8% and 67.5% and 69.1% and 66.0% and 67.8%
same,dZiec value,"osteoblasts of AIS#1468 (Group 3), 300 μM ligand",84.51 and 96.51 and 104.4 and 112.4 and 95.45 and 103.45
same,% of control,osteoblasts of AIS#1474 (Group 1) relative to CTR#60,28.4% and 27.5% and 31.8% and 29.7% and 28.7% and 29.1%
same,dZiec value,"osteoblasts of AIS#1474 (Group 1), 300 μM ligand",39.94 and 41.94 and 51.45 and 50.45 and 43.7 and 46.7
same,% of control,osteoblasts of AIS#1488 (Group 1) relative to CTR#69,30.2% and 29.2% and 32.7% and 30.0% and 28.8% and 32.3%
same,dZiec value,"osteoblasts of AIS#1488 (Group 1), 300 μM ligand",44.06 and 46.06 and 54.24 and 52.24 and 45.15 and 53.15
same,% of control,osteoblasts of AIS#1513 (Group 3) relative to CTR#61,68.8% and 71.4% and 73.3% and 74.6% and 71.5% and 72.9%
same,dZiec value,"osteoblasts of AIS#1513 (Group 3), 300 μM ligand",91.15 and 103.15 and 113.38 and 121.38 and 103.27 and 111.27
same,% of control,osteoblasts of AIS#1549 (Group 1) relative to CTR#61,19.7%
same,% of control,osteoblasts of AIS#1550 (Group 2) relative to CTR#60,53.1% and 56.8% and 56.5% and 58.5% and 55.2% and 57.4%
same,dZiec value,"osteoblasts of AIS#1550 (Group 2), 300 μM ligand",74.64 and 86.64 and 91.46 and 99.46 and 84.05 and 92.05
same,dZiec value,"osteoblasts of control CTR#60, 300 μM ligand",140.49/— and 152.49/— and 162/— and 170/— and 152.25/— and 160.25/—
same,dZiec value,"osteoblasts of control CTR#61, 300 μM ligand",132.45/— and 144.45/— and 154.6/— and 162.6/— and 144.53/— and 152.53/—
same,dZiec value,"osteoblasts of control CTR#69, 300 μM ligand",145.69/— and 157.69/— and 165.87/— and 173.87/— and 156.78/— and 164.78/—
same,"Absolute dZiec, control value of max diff. (maximal control value)",[1],166
same,"Absolute dZiec, control value of min diff. (minimal control value)",[1],128
same,"Absolute dZiec, Group 1, max diff. (group value)","osteoblasts, AIS Group 1 value of max diff., 300 μM ligand, from FIGS. 11A-11F",32
same,"Absolute dZiec, Group 1, min diff. (group value)","osteoblasts, AIS Group 1 value of min diff., 300 μM ligand, from FIGS. 11A-11F",49
same,"% of control signal, Group 1, max diff.","osteoblasts, AIS Group 1 vs maximal control value",19%
same,"% of control signal, Group 1, min diff.","osteoblasts, AIS Group 1 vs minimal control value",38%
same,"Absolute dZiec, Group 2, max diff. (group value)","osteoblasts, AIS Group 2 value of max diff., 300 μM ligand, from FIGS. 11A-11F",67
same,"Absolute dZiec, Group 2, min diff. (group value)","osteoblasts, AIS Group 2 value of min diff., 300 μM ligand, from FIGS. 11A-11F",88
same,"% of control signal, Group 2, max diff.","osteoblasts, AIS Group 2 vs maximal control value",40%
same,"% of control signal, Group 2, min diff.","osteoblasts, AIS Group 2 vs minimal control value",69%
same,"Absolute dZiec, Group 3, max diff. (group value)","osteoblasts, AIS Group 3 value of max diff., 300 μM ligand, from FIGS. 11A-11F",99
same,"Absolute dZiec, Group 3, min diff. (group value)","osteoblasts, AIS Group 3 value of min diff., 300 μM ligand, from FIGS. 11A-11F",107
same,"% of control signal, Group 3, max diff.","osteoblasts, AIS Group 3 vs maximal control value",60%
same,"% of control signal, Group 3, min diff.","osteoblasts, AIS Group 3 vs minimal control value",84%
